Measurements as given in paper PMC10800876, “Evaluation of proline-rich antimicrobial peptides as potential lead structures for novel antimycotics against Cryptococcus neoformans” (Frontiers in Microbiology, 2024).
Converted amounts (≈) assume the structure as drawn. Read-outs that look alike come from different tables or passages of the source. Non-standard residues stand in square brackets, D forms with d. Residues, ends and D or L forms follow the SMILES beside them. Ac6c = NC1(C(=O)O)CCCCC1

Legend:
[1] = tested on: C. neoformans 1841 (serotype D)
[2] = tested on: C. neoformans strains 1841, H99, and KN99α; experiment: Broth microdilution assay (MIC); type: cell-based, Cryptococcus neoformans; settings: strains 1841, H99, and KN99α, 24 h
[3] = tested on: C. neoformans KN99α; experiment: Antifungal activity assay (CFU on SAB agar); type: cell-based, Cryptococcus neoformans; settings: treatment 3 h, 30 °C, mean ± SD, n = 4; for cell count C. neoformans KN99α, 24 h: CFU counted after 24 h; for cell count C. neoformans KN99α, 48 h: CFU counted after 48 h
[4] = tested on: C. neoformans 1841; experiment: Antifungal activity assay (CFU on SAB agar); type: cell-based, Cryptococcus neoformans; settings: treatment 3 h, 30 °C, mean ± SD, n = 4; for cell count C. neoformans 1841, 24 h: CFU counted after 24 h; for cell count C. neoformans 1841, 48 h: CFU counted after 48 h
[5] = tested on: C. neoformans 1841; experiment: Time-kill assay; type: cell-based, Cryptococcus neoformans; settings: 2.5 μmol/L, 30°C, triplicates
Description: The kinetic effects of the antifungal activity were determined by diluting overnight cultures to 5 × 10^4 CFU/mL with 50% SAB in phosphate buffer. Aqueous peptide solutions (20 μL) were added to the cell suspension (80 μL) to give a final peptide concentration of 2.5 μmol/L. Samples were incubated at 30°C on an orbital shaker (750 rpm, Titramax 1,000, Heidolph Instruments GmbH & Co. KG) for 24 h. Before incubation (0 min) and after 45 min, 90 min, 3 h, 6 h, and 24 h incubation, aliquots (10 μL) of samples were taken and diluted with phosphate buffer (10 mmol/L, pH 7.5) to observe countable cell colonies. Aliquots (100 μL) of the diluted cell suspensions were plated on SAB agar plates. Plates were incubated at 30°C and colonies were counted after 24 h.

[6] = tested on: C. neoformans H99; experiment: Antifungal activity assay (CFU on SAB agar); type: cell-based, Cryptococcus neoformans; settings: treatment 3 h, 30 °C, mean ± SD, n = 4; for cell count C. neoformans H99, 24 h: CFU counted after 24 h; for cell count C. neoformans H99, 48 h: CFU counted after 48 h
[7] = tested on: HepG2 and HEK293 cell lines; experiment: Cytotoxicity (MTT), for both cell lines; type: cell-based, human
Description: Human embryonic kidney (HEK293) and human hepatoma (HepG2) cells were cultured in Dulbecco’s modified Eagle’s/Ham’s F-12 medium (DMEM/F-12) containing 10% (v/v) fetal bovine serum and 1% (v/v) penicillin/streptomycin. Cells (20,000 in 200 μL per well) were seeded into a 96-well plate (polystyrene F-bottom, Greiner Bio-One GmbH) and incubated for 24 h (37°C, 5% CO2). Cells were washed with PBS (100 μL) and peptide solutions (0.6 g/L in DMEM/F-12) were added. The positive control was a dilution series from 12 to 1.5% (v/v) DMSO and the negative control was 12% (v/v) PBS. After incubation (37°C, 24 h, 5% CO2), the supernatant was discarded, fresh medium (90 μL/well) and MTT (10 μL/well, 5 g/L in PBS) were added, and the plate was incubated for 4 h (37°C, 5% CO2). A solution (100 μL) of sodium dodecyl sulfate (10% (v/v)) in hydrochloric acid (10 mmol/L) was added and the plate was incubated again for 24 h (37°C, 5% CO2). Absorbance was recorded at 570 nm relative to the reference at 650 nm ([…] ™ microplate reader). All samples were corrected for the background absorbance of the medium. Relative cell viability was calculated as the ratio of absorbances recorded for treated and untreated cells ([Kolano et al., 2021]; [Brakel et al., 2022a],[b]).

[8] = tested on: C. neoformans H99 (serotype A)
[9] = tested on: C. neoformans KN99α (serotype A, mating type MATα)
[10] = tested on: C. neoformans strains 1841, H99, and KN99α; experiment: Antifungal activity assay (CFU); type: cell-based, Cryptococcus neoformans; settings: peptide concentrations ≥2.5 μmol/L, no colonies visible even after 48 h
[11] = tested on: C. neoformans; settings: cited from earlier work
Description: Moreover, these drugs have tremendous side effects due to their high toxicity, particularly kidney damage. In general, the dev ...

[12] = tested on: in vitro translation; settings: ref Seefeldt et al., 2016; cited from earlier work
Description: The putative intracellular mode of action is a very significant finding, supported by CLSM images showing fluorescence in the cytoplasmic region after incubation of C. neoformans with Cf-labeled PrAMPs (Figure 4; Supplementary Figure S3). At this point, we can only speculate about potential targets, such as the ribosomes at the endoplasmic reticulum, which is the primary target of PrAMPs in bacteria, i.e., the 70S ribosome ([Krizsan et al., 2014], [2015a],[b]; [Seefeldt et al., 2015]; [Graf et al., 2017]). […] However, ...

Q: For `CC(C)C[C@H](NC(=O)[C@H](Cc1ccc(O)cc1)NC(=O)[C@@H]1CCCN1C(=O)[C@H](CCCNC(=N)N)NC(=O)[C@@H]1CCCN1C(=O)[C@H](CCCCN)NC(=O)[C@H](CCCCN)NC(=O)[C@@H]1CCCN1C(=O)[C@H](CCCNC(=N)N)NC(=O)C1(N)CCCCC1)C(=O)N1CCC[C@H]1C(=O)N[C@@H](CCCNC(=N)N)C(=O)N1CCC[C@H]1C(=O)N[C@@H](CCCNC(=N)N)C(=O)N1CCC[C@H]1C(=O)N1CCC[C@H]1C(=O)N[C@@H](CCCNC(=N)N)C(=O)N1CCC[C@H]1C(=O)N[C@H](C(=O)N[C@@H](CCCNC(=N)N)C(N)=O)C(C)C` [Chex1Arg20 D4K] (H-[Ac6c]RPKKPRPYLPRPRPPRPVR-NH2; N-terminus assumed), which “MIC (μmol/L) 1841 24 h” value ([1]; 1841 (serotype D, 24 h, pH 7.5)) is on record?
A: Its value is 1.6 µmol/L (≈ 3.98 µg/mL).

Q: And the “MIC (μmol/L) 1841 48 h” value ([1]; 1841 (serotype D, 48 h, pH 7.5))?
A: Its value is 1.6 µmol/L (≈ 3.98 µg/mL).

Q: And the “MIC” value [2]?
A: Its value is 1.6 µM (≈ 3.98 µg/mL).

Q: What about the “cell count C. neoformans KN99α, 24 h” value ([3]; 0.25 µmol/L) of the same compound?
A: The value was 2.0 ± 1.2 x 10^4 CFU/mL.

Q: What about the “cell count C. neoformans KN99α, 48 h” value ([3]; 0.25 µmol/L) of the same compound?
A: Its value is 2.2 ± 1.1 x 10^4 CFU/mL.

Q: What about the “cell count C. neoformans KN99α, 24 h” value ([3]; 2.5 µmol/L) of the same compound?
A: The value was 0.1 ± 0.1 x 10^4 CFU/mL.

Q: And the “cell count C. neoformans KN99α, 48 h” value ([3]; 2.5 µmol/L)?
A: Its value is 0.1 ± 0.1 x 10^4 CFU/mL.

Q: And the “cell count C. neoformans KN99α, 24 h” value ([3]; 25 µmol/L)?
A: Its value is 0.8 ± 1.3 x 10^4 CFU/mL.

Q: What about the “cell count C. neoformans KN99α, 48 h” value ([3]; 25 µmol/L) of the same compound?
A: Its value is 0.8 ± 1.3 x 10^4 CFU/mL.

Q: And the “cell count C. neoformans 1841, 24 h” value ([4]; 0.25 µmol/L)?
A: The value was 0.4 ± 0.0 x 10^4 CFU/mL.

Q: What about the “cell count C. neoformans 1841, 48 h” value ([4]; 0.25 µmol/L) of the same compound?
A: Its value is 2.2 ± 0.3 x 10^4 CFU/mL.

Q: And the “cell count C. neoformans 1841, 24 h” value ([4]; 2.5 µmol/L)?
A: The value was 0.0 ± 0.0 x 10^4 CFU/mL.

Q: What about the “cell count C. neoformans 1841, 48 h” value ([4]; 2.5 µmol/L) of the same compound?
A: The value was 0.0 ± 0.0 x 10^4 CFU/mL.

Q: What about the “cell count C. neoformans 1841, 24 h” value ([4]; 25 µmol/L) of the same compound?
A: Its value is 0.0 ± 0.0 x 10^4 CFU/mL.

Q: What about the “cell count C. neoformans 1841, 48 h” value ([4]; 25 µmol/L) of the same compound?
A: Its value is 0.0 ± 0.0 x 10^4 CFU/mL.

Q: And the “incubation time after which no viable cells were detected” value [5]?
A: Its value is 45 min.

Q: And the “cell count C. neoformans H99, 24 h” value ([6]; 0.25 µmol/L)?
A: The value was 2.7 ± 0.4 x 10^4 CFU/mL.

Q: And the “cell count C. neoformans H99, 48 h” value ([6]; 0.25 µmol/L)?
A: Its value is 2.9 ± 0.4 x 10^4 CFU/mL.

Q: What about the “cell count C. neoformans H99, 24 h” value ([6]; 2.5 µmol/L) of the same compound?
A: The value was 0.0 ± 0.0 x 10^4 CFU/mL.

Q: And the “cell count C. neoformans H99, 48 h” value ([6]; 2.5 µmol/L)?
A: The value was 0.1 ± 0.0 x 10^4 CFU/mL.

Q: What about the “cell count C. neoformans H99, 24 h” value ([6]; 25 µmol/L) of the same compound?
A: Its value is 0.0 ± 0.0 x 10^4 CFU/mL.

Q: And the “cell count C. neoformans H99, 48 h” value ([6]; 25 µmol/L)?
A: The value was 0.0 ± 0.0 x 10^4 CFU/mL.

Q: What about the “peptide concentration used in cytotoxicity test relative to MIC (safety margin)” value [7] of the same compound?
A: The value was 150 fold.

Q: What about the “MIC (μmol/L) H99 24 h” value ([8]; H99 (serotype A, 24 h)) of the same compound?
A: Its value is 1.6 µmol/L (≈ 3.98 µg/mL).

Q: What about the “MIC (μmol/L) H99 48 h” value ([8]; H99 (serotype A, 48 h)) of the same compound?
A: The value was 1.6 µmol/L (≈ 3.98 µg/mL).

Q: And the “MIC (μmol/L) KN99α 24 h” value ([9]; KN99α (serotype A, mating type MATα, 24 h))?
A: Its value is 1.6 µmol/L (≈ 3.98 µg/mL).

Q: And the “MIC (μmol/L) KN99α 48 h” value ([9]; KN99α (serotype A, mating type MATα, 48 h))?
A: Its value is 1.6 µmol/L (≈ 3.98 µg/mL).

Q: And the “suppression of fungi, colonies after 48 h” value [10]?
A: Its value is “completely suppressed the fungi”.

Q: For `N=C(N)NCCCCC(=O)Nc1cc(C(F)(F)F)cc(NC(=O)c2cc(C(=O)Nc3cc(C(F)(F)F)cc(NC(=O)CCCCNC(=N)N)c3O[C@@H]3CCNC3)ncn2)c1O[C@@H]1CCNC1` [brilacidin], which “MIC against C. neoformans” value ([11]; ref Dos Reis et al., 2023) is on record?
A: Its value is 2.5 µM (≈ 2.34 µg/mL).

Q: Which “IC50 in eukaryotic in vitro translation system relative to the E. coli system” value [12] does the source give for “Bac7 (1-35): mammalian PrAMP fragment, literature (RRIRPRPPRLPRPRPRPLPFPRPGPRPIPRPLPFP; Bactenecin 7; UniProt P19661 131-165, looked up, fragment)” here?
A: The value was 2.5 fold.

Q: What about the “MIC against C. neoformans” value ([11]; ref Benincasa et al., 2004, Conti et al., 2013) of the same compound?
A: Its value is ≥ 4 µM.
